Patent publication US4605744A, “Imidazole derivatives” (Hoffmann-La Roche Inc., priority 1985, dated 1986)
Structures can show the parent of a compound that is named as a salt. Where two headings read alike, the source gives them in different places.

Assays:
Assay type in all cases: cell-based
[1] = system: K. pneumoniae 8357; assay: In vitro antibacterial activity (MIC)
Summary of the method: (§1)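 Broth microdilution in Mueller-Hinton broth, drug range 128 to 0.008 μg/ml; each well inoculated with 1.5 μl of a 10^-2 dilution of overnight culture. Sealed trays incubated overnight at 37° C. MIC is the lowest concentration showing no visible growth.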

[2] = system: S. marcescens S714; assay: In vitro antibacterial activity (MIC)
Summary of the method: as §1

[3] = system: S. marcescens S147; assay: In vitro antibacterial activity (MIC); conditions: S. marcescens S147
Summary of the method: as §1

[4] = system: E. aerogenes 503-478; assay: In vitro antibacterial activity (MIC)
Summary of the method: as §1

[5] = system: P. aeruginosa 8780; assay: In vitro antibacterial activity (MIC); conditions: P. aeruginosa 8780
Summary of the method: as §1

[6] = system: P. mirabilis 90; assay: In vitro antibacterial activity (MIC)
Summary of the method: as §1

[7] = system: E. cloacae 24; assay: In vitro antibacterial activity (MIC)
Summary of the method: as §1

[8] = system: K. pneumoniae HE7; assay: In vitro antibacterial activity (MIC); conditions: K. pneumoniae HE7
Summary of the method: as §1

[9] = system: E. cloacae P99; assay: In vitro antibacterial activity (MIC)
Summary of the method: as §1

[10] = system: E. aerogenes 83; assay: In vitro antibacterial activity (MIC)
Summary of the method: as §1

[11] = system: K. pneumoniae 503-994; assay: In vitro antibacterial activity (MIC)
Summary of the method: as §1

[12] = system: S. marcescens S5; assay: In vitro antibacterial activity (MIC)
Summary of the method: as §1

[13] = system: K. pneumoniae 5096; assay: In vitro antibacterial activity (MIC); conditions: K. pneumoniae 5096
Summary of the method: as §1

[14] = system: S. aureus Smith; assay: In vitro antibacterial activity (MIC); conditions: S. aureus Smith
Summary of the method: as §1

[15] = system: P. mirabilis 620A; assay: In vitro antibacterial activity (MIC); conditions: P. mirabilis 620A
Summary of the method: as §1

[16] = system: E. cloacae 9295; assay: In vitro antibacterial activity (MIC)
Summary of the method: as §1

[17] = system: E. cloacae 5699; assay: In vitro antibacterial activity (MIC)
Summary of the method: as §1

[18] = system: E. cloacae 214; assay: In vitro antibacterial activity (MIC)
Summary of the method: as §1

[19] = system: S. marcescens SM; assay: In vitro antibacterial activity (MIC)
Summary of the method: as §1

[20] = system: P. mirabilis 2; assay: In vitro antibacterial activity (MIC)
Summary of the method: as §1

[21] = system: S. marcescens S2; assay: In vitro antibacterial activity (MIC); conditions: S. marcescens S2
Summary of the method: as §1

[22] = system: P. vulgaris 100; assay: In vitro antibacterial activity (MIC); conditions: P. vulgaris 100
Summary of the method: as §1

[23] = system: S. aureus 1059B; assay: In vitro antibacterial activity (MIC)
Summary of the method: as §1

[24] = system: S. pneumoniae SC; assay: In vitro antibacterial activity (MIC)
Summary of the method: as §1

[25] = system: E. aerogenes 8; assay: In vitro antibacterial activity (MIC); conditions: E. aerogenes 8
Summary of the method: as §1

[26] = system: P. mirabilis 190; assay: In vitro antibacterial activity (MIC)
Summary of the method: as §1

[27] = system: P. rettgeri ATCC 9250; assay: In vitro antibacterial activity (MIC)
Summary of the method: as §1

[28] = system: P. aeruginosa 5712; assay: In vitro antibacterial activity (MIC); conditions: P. aeruginosa 5712
Summary of the method: as §1

[29] = system: P. aeruginosa 6148B; assay: In vitro antibacterial activity (MIC)
Summary of the method: as §1

[30] = system: K. pneumoniae A; assay: In vitro antibacterial activity (MIC); conditions: K. pneumoniae A
Summary of the method: as §1

[31] = system: S. marcescens S3; assay: In vitro antibacterial activity (MIC); conditions: S. marcescens S3
Summary of the method: as §1

[32] = system: S. marcescens 5805; assay: In vitro antibacterial activity (MIC)
Summary of the method: as §1

[33] = system: E. cloacae 9570A; assay: In vitro antibacterial activity (MIC)
Summary of the method: as §1

[34] = system: S. marcescens S4; assay: In vitro antibacterial activity (MIC)
Summary of the method: as §1

[35] = system: P. vulgaris 101; assay: In vitro antibacterial activity (MIC)
Summary of the method: as §1

[36] = system: P. vulgaris ATCC 6380; assay: In vitro antibacterial activity (MIC)
Summary of the method: as §1

[37] = system: P. mirabilis 503-1136; assay: In vitro antibacterial activity (MIC)
Summary of the method: as §1

[38] = system: S. pyogenes 4; assay: In vitro antibacterial activity (MIC); conditions: S. pyogenes 4
Summary of the method: as §1

[39] = system: K. pneumoniae 4964; assay: In vitro antibacterial activity (MIC)
Summary of the method: as §1

[40] = system: C. freundii 8ASM; assay: In vitro antibacterial activity (MIC); conditions: C. freundii 8ASM
Summary of the method: as §1

[41] = system: S. aureus Giorgio; assay: In vitro antibacterial activity (MIC)
Summary of the method: as §1

[42] = system: E. coli 257; assay: In vitro antibacterial activity (MIC, Mueller-Hinton broth)
Summary of the method: as §1

[43] = system: P. aeruginosa POW 151; assay: In vitro antibacterial activity (MIC); conditions: Pseudomonas aeruginosa, POW151
Summary of the method: as §1

[44] = system: P. aeruginosa 503-820; assay: In vitro antibacterial activity (MIC); conditions: Pseudomonas aeruginosa, 503820; P. aeruginosa 503-820; read-out: MIC
Summary of the method: as §1

[45] = system: S. schottmuelleri; assay: In vitro antibacterial activity (MIC); conditions: read-out: MIC
Summary of the method: as §1

[46] = Klebsiella pneumoniae, 8357, K. pneumoniae 8357, read-out: MIC
[47] = Serratia marcescens, S714, S. marcescens S714, read-out: MIC
[48] = Serratia marcescens, read-out: MIC
[49] = Klebsiella aerogenes, 503478, E. aerogenes 503-478, read-out: MIC
[50] = Proteus mirabilis, 90, P. mirabilis 90, read-out: MIC
[51] = Klebsiella pneumoniae, read-out: MIC
[52] = Klebsiella aerogenes, 83, E. aerogenes 83, read-out: MIC
[53] = Klebsiella pneumoniae, 503994, K. pneumoniae 503-994, read-out: MIC
[54] = Serratia marcescens, S5, S. marcescens S5, read-out: MIC
[55] = Staphylococcus aureus, read-out: MIC
[56] = Proteus mirabilis, 620A, read-out: MIC
[57] = Enterobacter cloacae, 9295, E. cloacae 9295, read-out: MIC
[58] = Enterobacter cloacae, 5699, E. cloacae 5699, read-out: MIC
[59] = Enterobacter cloacae, 214, E. cloacae 214, read-out: MIC
[60] = Proteus mirabilis, 2, P. mirabilis 2, read-out: MIC
[61] = Proteus vulgaris, read-out: MIC
[62] = Klebsiella aerogenes, read-out: MIC
[63] = Proteus mirabilis, 190, P. mirabilis 190, read-out: MIC
[64] = Providencia rettgeri, ATCC9250, P. rettgeri ATCC 9250, read-out: MIC
[65] = Serratia marcescens, 5805, S. marcescens 5805, read-out: MIC
[66] = Enterobacter cloacae, read-out: MIC
[67] = Serratia marcescens, S4, S. marcescens S4, read-out: MIC
[68] = Proteus vulgaris, 101, P. vulgaris 101, read-out: MIC
[69] = Proteus vulgaris, ATCC6380, P. vulgaris ATCC 6380, read-out: MIC
[70] = Proteus mirabilis, 5031136, P. mirabilis 503-1136, read-out: MIC
[71] = Citrobacter freundii, 8ASM, read-out: MIC
[72] = Pseudomonas aeruginosa, read-out: MIC

Measured: MIC

CC1(C)S[C@@H]2[C@H](N=CN3CCCC(CCn4ccnc4)CC3)C(=O)N2[C@H]1C(=O)O.Cl.O (single isomer, unassigned) [D]
1 µg/mL: [2]; S. marcescens S714 | [6]; P. mirabilis 90 | [34]; S. marcescens S4 | [38] | [39]; K. pneumoniae 4964
0.5 µg/mL: [7]; E. cloacae 24 | [16]; E. cloacae 9295 | [17]; E. cloacae 5699 | [20]; P. mirabilis 2 | [21] | [27]; P. rettgeri ATCC 9250 | [31] | [33]
0.25 µg/mL: [1]; K. pneumoniae 8357 | [18]; E. cloacae 214 | [19] | [26]; P. mirabilis 190
16 µg/mL: [10]; E. aerogenes 83 | [22] | [37]; P. mirabilis 503-1136 | [41]; S. aureus Giorgio
> 128 µg/mL: [5] | [8] | [13] | [28] | [29]
4 µg/mL: [24]
128 µg/mL: [23] | [25]
2 µg/mL: [12]; S. marcescens S5 | [32]; S. marcescens 5805
8 µg/mL: [4]; E. aerogenes 503-478
64 µg/mL: [15]
0.031 µg/mL: [30]
0.062 µg/mL: [40]
0.125 µg/mL: [3] | [9]; E. cloacae P99 | [11]; K. pneumoniae 503-994 | [36]; P. vulgaris ATCC 6380 | [42]; E. coli 257
32 µg/mL: [14] | [35]; P. vulgaris 101

CC1(C)S[C@@H]2[C@H](N=CN3CCC(Cc4ncc[nH]4)CC3)C(=O)N2[C@H]1C(=O)O [Q, [2S-(2alpha,5alpha,6beta)]-6-[[[4-(1H-imidazol-2-yl-methyl)-1-piperidinyl]methylene]amino]-3,3-dimethyl-7-oxo-4-thia-1-azabicyclo[3.2.0]heptane-2-carboxylic acid hydrochloride]
4 µg/mL: [1]; [46] | [10]; [52] | [16]; [57] | [17]; [58] | [39]; Klebsiella pneumoniae, 4964, K. pneumoniae 4964, read-out: MIC
16 µg/mL: [4]; [49] | [27]; [64]
0.25 µg/mL: [2]; [47] | [26]; [63]
1 µg/mL: [22]; [61] | [32]; [65]
128 µg/mL: [13]; [51] | [23]; [55]
0.5 µg/mL: [6]; [50] | [7]; Enterobacter cloacae, 24, E. cloacae 24, read-out: MIC | [12]; [54] | [18]; [59] | [34]; [67]
8 µg/mL: [9]; Enterobacter cloacae, P99, E. cloacae P99 | [11]; [53] | [14]; [55] | [20]; [60] | [35]; [68] | [37]; [70] | [41]; Staphylococcus aureus, S. aureus Giorgio, read-out: MIC
0.062 µg/mL: [30]; [51] | [40]; [71] | [42]; Escherichia coli, 257, E. coli 257, read-out: MIC
0.016 µg/mL: [36]; [69]
> 128 µg/mL: [8]; [51] | [15]; [56] | [43]
0.125 µg/mL: [3]; [48] | [19]; [48] | [21]; [48] | [25]; [62] | [31]; [48] | [33]; [66]

CC1(C)S[C@@H]2[C@H](N=CN3CCC(CCn4ccnc4)CC3)C(=O)N2[C@H]1C(=O)O [B, [2S-2alpha,5alpha,6beta)]-6-[[[4-[2-(1H-imidazol-1-yl)ethyl]-1-piperidinyl]methylene]amino]-3,3-dimethyl-7-oxo-4-thia-1-azabicyclo[3.2.0]heptane-2-carboxylic acid hydrate hydrochloride]
32 µg/mL: [41]; Staphylococcus aureus
0.25 µg/mL: [1]; [46] | [11]; [53] | [13]; [51] | [19]; [48] | [45] | [25]; [62] | [42]; Escherichia coli, 257
0.062 µg/mL: [30]; [51] | [40]; [71]
1 µg/mL: [2]; [47] | [18]; [59] | [20]; [60] | [32]; [65] | [34]; [67] | [35]; [68]
0.5 µg/mL: [3]; [48] | [10]; [52] | [16]; [57] | [17]; [58] | [21]; [48] | [26]; [63] | [27]; [64] | [31]; [48] | [33]; [66] | [36]; [69] | [39]; Klebsiella pneumoniae, 4964
8 µg/mL: [22]; [61] | [37]; [70]
2 µg/mL: [4]; [49] | [6]; [50] | [7]; Enterobacter cloacae, 24 | [12]; [54]
> 128 µg/mL: [5]; [72] | [8]; [51] | [15]; [56] | [44] | [23]; [55] | [28]; [72] | [43]
